The test system of one series is cynomulgus monkey. Description: Emetic action test in cynomulgus monkey. The following applies: suspended in 0.5% aqueous methyl cellulose, administered nasally; emesis observed for 24 hours; 3 or 4 monkeys per dose.
The target of a further series is PDE4. Description: Measurement of PDE4 enzyme inhibiting action. The following applies: PDE4 enzyme solution from polymorphonuclear leukocytes of healthy volunteer; 0.2 μM [3H]cAMP, 30° C., 30 minutes; read-out: PDE4 inhibition IC50 value. It counts as biochemical, human. On the procedure:
Preparation of a PDE4 enzyme solution was carried out according to the method of Cooper et al. (Br. J. Pharmacol., 126, 1863 (1999)) by modifying a part thereof. Heparin-treated peripheral blood from healthy volunteer was stratified by a blood cell separating solution (Polymorphprep™, available from AXIS-SHIELD PoC AS CO.), and centrifugation was carried out at 20° C. with 1900 rpm for 27 minutes to obtain polymorphonuclear leukocytes. The polymorphonuclear leukocytes were washed with a Hanks' balanced salt solution, then, a mixed solution comprising 70% of 10 mM 3-morpholinopropane sulfonic acid buffer solution (pH 7.4) containing 1 mM EGTA, 1 mM magnesium acetate and 5 mM dithiothreitol and 30% of ethylene glycol was added thereto to dissolve the same under ice-cooling, and the obtained cell dissolved solution was used as a PDE4 enzyme solution.
Measurement of PDE4 activity was carried out according to the method of Owens, et al. (Biochem. J., 326, 53 (1997)) by modifying a part thereof. The PDE4 enzyme solution was incubated with a compound to be tested dissolved in dimethylsulfoxide in 80 mM Tris-HCl buffer solution (pH 7.4) containing 0.2 μM [^3H] cAMP, 0.1 mM cGMP, 20 mM MgCl2 and 12 mM 2-mercaptoethanol at 30° C. for 30 minutes. Trifluoroacetic acid (final concentration: 1%) was added to the mixture to stop the reaction, and the reaction mixture was added to neutral alumina column (BOND ELUT™, available from VARIAN INC.). After the column was washed with 100 mM Tris-HCl buffer solution (pH 8.0), [^3H] 5′-AMP was eluted with 2N sodium hydroxide solution, and radioactivity of the eluent was measured by a liquid scintillation analyzer.
A concentration of the compound to be tested which inhibits 50% of PDE4 activity was calculated from the relation between the concentration of the compound to be tested which had been added and PDE4 activity as an IC50 value.

Molecules are shown by their SMILES. Bounds are passed on as bounds.

Experimental for cynomulgus monkey: The compound to be tested was suspended in 0.5% aqueous methyl cellulose solution (5 ml/Kg), and administered nasally.
With respect to each dose, each administered to 3 or 4 monkeys, and a dose in which emesis had not been admitted in all monkeys was made a maximum non-emesis dose.

For orientation: melting point means the temperature, or range, at which the solid turns liquid. As a reminder, the IC50 is the concentration at which inhibition is half-maximal. `CCc1c(-c2ccc(OC(F)F)c(OC3CC3)c2)[nH]c2cn[nH]c(=O)c12` [Example 5, 2-(3-Cyclopropoxy-4-difluoromethoxyphenyl)-3-ethyl-1,5-dihydropyrrolo[2,3-d]pyridazin-4-one] returned a melting point of 223 to 225 °C. For the same molecule, the “Monkey Maximum non-emesis dose” value in the series with cynomulgus monkey is greater than 30 mg/kg. For the same molecule, the IC50 on PDE4 amounted to 3.4 nM.

Consider `O=C(Nc1c(Cl)cncc1Cl)c1ccc(OC(F)F)c(OCC2CC2)c1` [compound A, N-(3,5-dichloro-4-pyridyl)-3-cyclopropylmethoxy-4-difluoromethoxybenzamide, reference compound], for which the “Monkey Maximum non-emesis dose” value in the series on cynomulgus monkey turned out to be 0.1 mg/kg.

With `O=c1[nH]ncc2[nH]c(-c3ccc(OC(F)F)c(OCC4CC4)c3)c(-c3ccccc3)c12` [Example 38, 2-(3-Cyclopropylmethoxy-4-difluoromethoxyphenyl)-3-phenyl-1,5-dihydropyrrolo[2,3-d]pyridazin-4-one], the melting point is 249 to 251 °C. In addition, the IC50 on PDE4 stood at 7.1 nM.

As to `COc1ccc(-c2cc3c(=O)[nH]ncc3[nH]2)c2c1OC1(CCCC1)C2` [Example 50, 2-(2,3-Dihydro-7-methoxybenzofuran-2-spiro-1′-cyclopentan-4-yl)-1,5-dihydropyrrolo[2,3-d]pyridazin-4-one], the melting point was 265 °C (dec.). Moreover, the IC50 on PDE4 was 16 nM.

`O=c1[nH]ncc2[nH]c(-c3ccc(OC(F)F)c(OC4CCC4)c3)cc12` [Example 31, 2-(3-Cyclobutoxy-4-difluoromethoxyphenyl)-1,5-dihydropyrrolo[2,3-d]pyridazin-4-one] returned a melting point of 289 to 291 °C. At PDE4, the IC50 stood at 9.1 nM.

Regarding `O=c1[nH]ncc2[nH]c(-c3ccc(OC(F)F)c4c3C=CC3(CCCC3)O4)c(Cl)c12` [Example 57, 3-Chloro-2-(8-difluoromethoxy-2H-chromen-2-spiro-1′-cyclopentan-5-yl)-1,5-dihydropyrrolo[2,3-d]pyridazin-4-one], the melting point is greater than 300 °C. Also, at PDE4, the half-maximal inhibitory concentration (IC50) came to 11 nM.

Turning to `O=c1[nH]ncc2[nH]c(-c3ccc(OC(F)F)c(OC4CC4)c3)c(C3CC3)c12` [Example 14, 2-(3-Cyclopropoxy-4-difluoromethoxyphenyl)-3-cyclopropyl-1,5-dihydropyrrolo[2,3-d]pyridazin-4-one], the melting point was 248 to 249 °C. In addition, the IC50 at PDE4 was 4.7 nM.

Regarding `CCOCc1c(-c2ccc(OC(F)F)c(OC3CC3)c2)[nH]c2cn[nH]c(=O)c12` [Example 12, 2-(3-Cyclopropoxy-4-difluoromethoxyphenyl)-3-ethoxymethyl-1,5-dihydropyrrolo[2,3-d]pyridazin-4-one], the melting point fell in the range of 141 to 143 °C. In addition, the “Monkey Maximum non-emesis dose” value with cynomulgus monkey is 3 mg/kg. Also, the IC50 at PDE4 is 4.6 nM.

`O=c1[nH]ncc2[nH]c(-c3ccc(OC(F)F)c(OC4CC4)c3)c(COC3CCC3)c12` [Example 13, 3-Cyclobutoxymethyl-2-(3-cyclopropoxy-4-difluoromethoxyphenyl)-1,5-dihydropyrrolo[2,3-d]pyridazin-4-one] gave a melting point of 95 to 100 °C. Moreover, on PDE4, the IC50 was 0.65 nM.

As to `CC(C)COCc1c(-c2ccc(OC(F)F)c(OC3CC3)c2)[nH]c2cn[nH]c(=O)c12` [Example 62, 2-(3-Cyclopropoxy-4-difluoromethoxyphenyl)-3-isobutoxymethyl-1,5-dihydropyrrolo[2,3-d]pyridazin-4-one], the melting point lay within 162 to 164 °C. Moreover, the “Monkey Maximum non-emesis dose” value with cynomulgus monkey was greater than 10 mg/kg. Besides, the IC50 at PDE4 came out at 0.41 nM.

`O=c1[nH]ncc2[nH]c(-c3ccc(OC(F)F)c(OC4CCC4)c3)c(Br)c12` [Example 33, 3-Bromo-2-(3-cyclobutoxy-4-difluoromethoxyphenyl)-1,5-dihydropyrrolo[2,3-d]pyridazin-4-one] registered a melting point of 234 to 238 °C. In addition, the 50% inhibitory concentration (IC50) at PDE4 was determined as 1.8 nM.

In the case of `C=CC(O)c1c(-c2ccc(OC(F)F)c(OC3CC3)c2)[nH]c2cn[nH]c(=O)c12` (stereo not shown) [Example 75, 2-(3-Cyclopropoxy-4-difluoromethoxyphenyl)-3-(1-hydroxy-2-propenyl)-1,5-dihydropyrrolo[2,3-d]pyridazin-4-one], the melting point lay within 202 to 203 °C. The IC50 at PDE4 came to 1.5 nM.

The molecule `CC(C)Cc1c(-c2ccc(OC(F)F)c(OC3CC3)c2)[nH]c2cn[nH]c(=O)c12` [Example 9, 2-(3-Cyclopropoxy-4-difluoromethoxyphenyl)-3-isobutyl-1,5-dihydropyrrolo[2,3-d]pyridazin-4-one] came in with a melting point of 239 to 241 °C. Also, the IC50 at PDE4 was found to be 1.8 nM.

`CC(C)C#CCc1c(-c2ccc(OC(F)F)c(OC3CC3)c2)[nH]c2cn[nH]c(=O)c12` [Example 73, 2-(3-cyclopropoxy-4-difluoromethoxyphenyl)-3-(4-methyl-2-pentynyl)-1,5-dihydropyrrolo[2,3-d]pyridazin-4-one]: the melting point fell in the range of 139 to 143 °C. Besides, the IC50 on PDE4 came out at 0.23 nM.

In turn, `O=c1[nH]ncc2[nH]c(-c3ccc(OC(F)F)c(OC4CC4)c3)c(Cc3ccccc3)c12` [Example 19, 3-Benzyl-2-(3-cyclopropoxy-4-difluoromethoxyphenyl)-1,5-dihydropyrrolo[2,3-d]pyridazin-4-one] yielded a melting point of 215 to 217 °C. In addition, on PDE4, the IC50 is 0.18 nM.

In turn, `COc1ccc(Cc2c(-c3ccc(OC(F)F)c(OC4CC4)c3)[nH]c3cn[nH]c(=O)c23)cn1` [Example 29, 2-(3-Cyclopropoxy-4-difluoromethoxyphenyl)-3-(6-methoxy-3-pyridylmethyl)-1,5-dihydropyrrolo[2,3-d]pyridazin-4-one] returned a melting point of 220 to 221 °C. Besides, on PDE4, the 50% inhibitory concentration (IC50) turned out to be 0.57 nM.

For the origin of these results see patent publication US8450319B2, “Pyrrolopyridazinone compound” (Ube Industries, Ltd., priority 2006, dated 2013).
